≈ marks a conversion by molar mass, not a printed value.
How the values were obtained:
[1] = Total antioxidant capacity (TAC), phosphomolybdenum method; conditions: samples at 100 µg/mL; mean ± SE, n = 3
Protocol: 1. Preparation of SB-CuO-NPs
The copper oxide nanoparticles (CuO-NPs) were biosynthesized using a concentrated anhydrous copper sulfate solution (1 mM) as a metal precursor based […]
dissolved in 100 ml of deionized water to form a 0.1 M concentration. The Schiff base (SB) was mixed with the metal solution in a ratio of 4:1. The SB-CuO-NPs was monitored by a color change. They were dried at 80 °C after centrifuging the colloidal solution at 4000 rpm for 15 min.
2. Characterization of the SB-CuO-NPs
The spectra of the SB-CuO-NPs were characterized using a Shimadzu UV-VIS recording spectrophotometer UV-240 after diluting the samples (10-fold) with deionized water at λ 200 - 800 nm. Their surface zeta potentials were measured using the laser zeta meter (Malvern Zetasizer 2000, Malvern, Worcestershire, UK) following […]
Moreover, their average hydrodynamic sizes were determined using the laser diffraction method with multiple scattering techniques employing dynamic light scattering (DLS) (Malvern Zetasizer Nano ZS, Malvern Instruments Ltd., Malvern, United Kingdom) (Murdock et al., 2008). […]
All biological activities were assessed in the prepared samples at equal concentrations (100 µg/mL). […]
After cooling to room temperature, the absorbance was measured at 695 nm against the blank. […] The antioxidant capacity was expressed as mg gallic acid equivalent per gram weight. […]

COX-1 = molecular target: T1, COX-1 (Ovis aries, UniProt P05979); test: COX-1 inhibition assay (Cayman kit); type: biochemical, ovine; conditions: mean ± SE, n = 3
T1 construct: purchased Cayman 560131
T1 sequence (P05979 25-600): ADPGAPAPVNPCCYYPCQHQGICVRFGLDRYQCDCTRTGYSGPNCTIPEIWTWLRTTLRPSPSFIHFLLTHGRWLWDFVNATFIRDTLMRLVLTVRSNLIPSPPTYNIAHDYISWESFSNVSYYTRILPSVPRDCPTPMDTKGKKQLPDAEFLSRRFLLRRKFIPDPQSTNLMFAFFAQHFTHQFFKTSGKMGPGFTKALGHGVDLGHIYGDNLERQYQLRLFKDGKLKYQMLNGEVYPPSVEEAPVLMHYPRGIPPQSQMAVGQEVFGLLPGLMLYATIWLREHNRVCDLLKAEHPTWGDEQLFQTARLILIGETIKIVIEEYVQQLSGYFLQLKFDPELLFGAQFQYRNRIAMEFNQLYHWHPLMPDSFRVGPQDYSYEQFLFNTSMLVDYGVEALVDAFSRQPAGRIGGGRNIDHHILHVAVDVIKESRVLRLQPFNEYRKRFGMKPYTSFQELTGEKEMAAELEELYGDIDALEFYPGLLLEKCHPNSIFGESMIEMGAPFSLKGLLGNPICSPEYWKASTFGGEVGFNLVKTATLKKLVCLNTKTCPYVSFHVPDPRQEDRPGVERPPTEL

Bcl-2 in Caco-2 cells = test: Bcl-2 ELISA in treated Caco-2 cells; type: cell-based, human; conditions: Caco-2 cells treated at the IC50 value, mean ± SE, n = 3
Protocol: Following the treatment of HepG-2, Caco-2, A549, and BJ-1 cells with the SB-CuO-NPs at their respective IC50 values, as illustrated in Figure 9 and detailed in Table 5, an assessment of the activities of the caspase-3 and Bcl-2 enzymes was conducted in the treated cells. […] This mechanism ultimately triggers apoptosis. Additionally, the increased activity of caspase-3 results in a decrease in the expression of cyclin D1 and CDK-2 mRNA, thereby promoting the arrest of the G1 phase of the cell cycle. Othman et al. further noted that the biosynthesized M-NPs facilitate apoptosis by inhibiting the expression of the PI3K/AKT and Ras/Raf/ERK protein signaling pathways.
Invitrogen Corporation, following the manufacturer's instructions.

[2] = tested on: human colon cancer (Caco-2) cell line; test: MTT cytotoxicity, Caco-2

Cc1nn(-c2ccccc2)c(Cl)c1C=NN=C1C(=O)Nc2ccccc21 [SB]
Antioxidant activity TAC [1]: 65.41 ± 0.19 mg gallic acid/g | inhibition at 100 µg/mL (COX-1; at 100 µg/mL, read-out: COX-1 Inhib. (%)): 31.61 ± 0.18% | IC50 (COX-1): 27.1 µM | Bcl-2 (Bcl-2 in Caco-2 cells): 3.77 ± 0.05 ng/mL | viability at 31.13 µg/mL ([2]; Caco-2): 86% | viability at 62.5 µg/mL ([2]; Caco-2): 72.2% | viability at 125 µg/mL ([2]; Caco-2): 48.6% | viability at 250 µg/mL ([2]; Caco-2): 38.4% | viability at 500 µg/mL ([2]; Caco-2): 18.6% | IC50 ([2]; Caco-2, 48 h, read-out: Median Inhibitory Concentration (IC50) Caco-2): 115 ± 3.25 µg/mL (≈ 317 µM)
